Experimental data taken from US10336746B1, “RAD51 inhibitors” (Cyteir Therapeutics, Inc., priority 2017, dated 2019).
Where two headings read alike, the source gives them in different places.

Tests used:
[1] = Bi-directional Caco-2 permeability; format: in vitro ADME; conditions: human
Experimental: Bi-directional Caco-2 permeability was assayed. Caco-2 cells were seeded onto permeable polycarbonate supports and allowed to differentiate for about 3 weeks prior to being used in the assays. The cells were then exposed to the compounds from either the apical or basolateral sides and incubated at 37 C for up to 90 minutes under light agitation. Compound transport was then measured using LC/MS/MS analysis at 30, 60, and 90 minutes.

[2] = tested on: Daudi cell line (AID positive); test: Primary screening cell killing assay, Daudi cell line (AID positive); format: cell-based; conditions: Homo sapiens, 168 h, cell death on Day 7, Cell-Titer Glo
Experimental: Primary screening was a phenotypic screen that utilized the synthetic lethal interaction between AID and RAD51 to identify compounds that were both potent and on target. AID expressing cells are dependent upon RAD51 for survival; inhibiting RAD51 in AID positive cells results in a cytotoxic effect.
The first step was to set up a cell killing assay in the Daudi cell line (AID positive). A 96 well u-bottom plate was prepared by writing the experiment number, plate number, date and initials in the top right corner of the plate lid. With a sterile 300 ml reservoir, and 25 ml serological pipette, evaporation buffer media was pipetted into reservoir in 25 ml increments. Using the liquid handler, 150 ul of evaporation buffer media was pipetted from reservoir into rows A and H, and Columns 1 and 12 of the 96 well u-bottom plate. Cell cultures were counted to obtain the density of cells per ml, and the culture viability. The cell density information was used to obtain 1,000,000 cells from culture using a 5 mL serological pipette into an epi tube. The cell density information from the culture was used to calculate the number of cells and volume of media needed for the assay to seed 1250 cells in 130 ul of media per available culture well in the 96 well u-bottom plate. Rows B through F were used for cells (50 wells in total), with row G left for an empty media control. The calculation was overestimated by 10 mL to account for the dead volume in the 300 ml reservoir. Once the media volume was calculated, the appropriate volume of media was pipetted in 25 mL increments into the 250 mL bottle using a 25 mL serological pipette. The 250 ml bottle was capped tightly, and placed into a 37° C. water bath for 2 minutes. While the culture media was warming, 10 mL of fresh media was pipetted from the 500 mL culture media bottle into a sterile 25 mL reservoir. Using the Eppendorf multichannel pipette, 130 ul of media was pipetted from the 25 mL reservoir into row G of the 96 well u-bottom plate. Once the 250 mL bottle of media was warmed, the volume of culture needed was pipetted into the bottle, and mixed gently with a 25 mL serological pipette as to not create bubbles, and then the contents of the bottle were pipetted into a new 300 mL reservoir. Using the liquid handler, 130 ul of culture was pipetted from the 300 mL reservoir into rows B through F of the 96 well u-bottom plate. Once the culture was added, the plate was placed into a 37° C. incubator until the compound master plate was prepared for use.
Two 96 well u-bottom plates were prepared by writing the master plate name in the upper right corner of the plate lid. Labeling one DMSO master and the other Media Master. The compounds of interest were obtained from the laboratory freezer, and placed into a 25 well storage box with a lid, and set the box aside. The compounds were vortexed after thawing but before use. Using an automatic multichannel pipette, 20 ul of 100% DMSO was pipetted into wells B3-B11 through G3-G11 of the DMSO master plate. For each compound on the master plate, 50 ul of the compound were pipetted in the appropriate well of row 2 (reference plate map to determine appropriate well). A serial dilution was prepared beginning by aspirating 20 ul from row 2 and mixing with row 3, repeating until row 11 was reached. Using the liquid handler, 194 ul of Daudi media was dispensed into wells B2-B11 through G2-G11 of the Media master plate. Using the liquid handler, 6 ul from the DMSO master plate was aspirated and dispensed into the media master plate, mixing 100 ul twice.
Compounds from master plate were then added to the culture plate. The culture plates were removed from the incubator, and set inside the biosafety cabinet. Using a liquid handler, 20 ul from wells B2 to B11 through G2 to G11 of master plate were aspirated, and dispensed into wells B2 to B11 through G2 to G11 of culture plate. This set was continued with each culture plate. […]

SMILES	EC50 [2] [nM]	further results
CC(C)OC(=O)Nc1ccc(-c2cnc([C@@H]3CC[C@@H](NC(=O)OC(C)C)CN3)s2)c(S(=O)(=O)NC(C)(C)C)c1 (relative stereo) [Ex. 63, trans-isopropyl N-[6-[5-[2-(tert-butylsulfamoyl)-4-(isopropoxycarbonylamino)phenyl]thiazol-2-yl]-3-piperidyl]carbamate]	100 to 1000	recovery at 90 min ([1]; Caco-2, Caco-2, AB direction, read-out: AB Recovery %): 83.6%; recovery at 90 min ([1]; Caco-2, Caco-2, BA direction, read-out: BA Recovery %): 90%; efflux ratio at 90 min ([1]; Caco-2, read-out: BA/AB Ratio): 2.5; Papp A→B at 90 min ([1]; Caco-2, apical to basolateral, 37 C, up to 90 minutes, read-out: AB Papp (cm/sec × 10^6)): 10.5 ×10⁻⁶ cm/s; Papp B→A at 90 min ([1]; Caco-2, basolateral to apical, 37 C, up to 90 minutes, read-out: BA Papp (cm/sec × 10^6)): 26.7 ×10⁻⁶ cm/s
CN1CCC[C@H]1COC(=O)Nc1ccc(-c2cnc(N3CCC(OC(=O)NCc4ccccc4)CC3)s2)c(S(=O)(=O)NC(C)(C)C)c1 [Ex. 1, (S)-(1-methylpyrrolidin-2-yl)methyl (4-(2-(4-((benzylcarbamoyl)oxy)piperidin-1-yl)thiazol-5-yl)-3-(N-(tert-butyl)sulfamoyl)phenyl)carbamate]	> 1000	
CN1CCC[C@@H]1COC(=O)Nc1ccc(-c2cnc(N3CCC(OC(=O)NCc4ccccc4)CC3)s2)c(S(=O)(=O)NC(C)(C)C)c1 [Ex. 2, [1-[5-[2-(tert-butylsulfamoyl)-4-[[(2R)-1-methylpyrrolidin-2-yl]methoxycarbonylamino]phenyl]thiazol-2-yl]-4-piperidyl] N-benzylcarbamate]	> 1000	
CC(C)OC(=O)N1CCN(c2ncc(-c3ccc(NC(=O)OCc4ccccc4)cc3S(=O)(=O)NC(C)(C)C)s2)CC1 [Ex. 6, isopropyl 4-[5-[4-(benzyloxycarbonylamino)-2-(tert-butylsulfamoyl)phenyl]thiazol-2-yl]piperazine-1-carboxylate]	> 1000	
CC(C)OC(=O)Nc1ccc(-c2cnc(C3CCC(NC(=O)OC[C@H]4CCCN4C)CC3)s2)c(S(=O)(=O)NC(C)(C)C)c1 (stereo partly drawn) [Ex. 8, [(2R)-1-methylpyrrolidin-2-yl]methyl N-[4-[5-[2-(tert-butylsulfamoyl)-4-(isopropoxycarbonylamino)phenyl]thiazol-2-yl]cyclohexyl]carbamate]	> 1000	
CC(C)OC(=O)Nc1ccc(-c2cnc(C3CCC(NC(=O)OC[C@@H]4CCCN4C)CC3)s2)c(S(=O)(=O)NC(C)(C)C)c1 (stereo partly drawn) [Ex. 9, isopropyl (3-(N-(tert-butyl)sulfamoyl)-4-(2-((1S,4r)-4-(((((S)-1-methylpyrrolidin-2-yl)methoxy)carbonyl)amino)cyclohexyl)thiazol-5-yl)phenyl)carbamate]	100 to 1000	
CN1CCC[C@@H]1COC(=O)NC1CCC(c2ncc(-c3ccc(NC(=O)NCc4ccccc4)cc3S(=O)(=O)NC(C)(C)C)s2)CC1 (stereo partly drawn) [Ex. 11, [(2R)-1-methylpyrrolidin-2-yl]methyl N-[4-[5-[4-(benzylcarbamoylamino)-2-(tert-butylsulfamoyl)phenyl]thiazol-2-yl]cyclohexyl]carbamate]	100 to 1000	
CN1CCC[C@H]1COC(=O)N[C@H]1CC[C@H](c2ncc(-c3ccc(NC(=O)NCc4ccccc4)cc3S(=O)(=O)NC(C)(C)C)s2)CC1 [Ex. 12, ((S)-1-methylpyrrolidin-2-yl)methyl ((1r,4S)-4-(5-(4-(3-benzylureido)-2-(N-(tert-butyl)sulfamoyl)phenyl)thiazol-2-yl)cyclohexyl)carbamate]	100 to 1000	
CC(C)OC(=O)N[C@H]1CC[C@H](c2ncc(-c3ccc(NC(=O)NCc4ccncc4)cc3S(=O)(=O)NC(C)(C)C)s2)CC1 [Ex. 22, trans-isopropyl N-[4-[5-[2-(tert-butylsulfamoyl)-4-(4-pyridylmethylcarbamoylamino)phenyl]thiazol-2-yl]cyclohexyl]carbamate]	100 to 1000	
CC(C)OC(=O)N[C@H]1CC[C@H](c2ncc(-c3ccc(NC(=O)NCc4ccc(F)cc4)cc3S(=O)(=O)NC(C)(C)C)s2)CC1 [Ex. 23, isopropyl ((1r,4r)-4-(5-(2-(N-(tert-butyl)sulfamoyl)-4-(3-(4-fluorobenzyl)ureido)phenyl)thiazol-2-yl)cyclohexyl)carbamate]	≤ 100	
CC(C)OC(=O)N[C@H]1CC[C@H](c2ncc(-c3ccc(NC(=O)NCc4cccnc4)cc3S(=O)(=O)NC(C)(C)C)s2)CC1 [Ex. 25, isopropyl ((1r,4r)-4-(5-(2-(N-(tert-butyl)sulfamoyl)-4-(3-(pyridin-3-ylmethyl)ureido)phenyl)thiazol-2-yl)cyclohexyl)carbamate]	≤ 100	
CC(C)OC(=O)N[C@H]1CC[C@H](c2ncc(-c3ccc(NC(=O)OCC4CCNCC4)cc3S(=O)(=O)NC(C)(C)C)s2)CC1 [Ex. 33, trans-4-piperidylmethyl N-[3-(tert-butylsulfamoyl)-4-[2-[4-(isopropoxycarbonylamino)cyclohexyl]thiazol-5-yl]phenyl]carbamate]	> 1000	
CC(C)OC(=O)NC1CCC(c2ncc(-c3ccc(NC(=O)OC[C@H]4CCCN4)cc3S(=O)(=O)NC(C)(C)C)s2)CC1 (stereo partly drawn) [Ex. 36, isopropyl ((1R,4r)-4-(5-(2-(N-(tert-butyl)sulfamoyl)-4-(((((R)-pyrrolidin-2-yl)methoxy)carbonyl)amino)phenyl)thiazol-2-yl)cyclohexyl)carbamate]	100 to 1000	
CC(C)OC(=O)NC1CCC(c2ncc(-c3ccc(NC(=O)OC[C@@H]4CCCN4)cc3S(=O)(=O)NC(C)(C)C)s2)CC1 (stereo partly drawn) [Ex. 37, isopropyl ((1S,4r)-4-(5-(2-(N-(tert-butyl)sulfamoyl)-4-(((((S)-pyrrolidin-2-yl)methoxy)carbonyl)amino)phenyl)thiazol-2-yl)cyclohexyl)carbamate]	100 to 1000	
COc1cc(NC(=O)OC(C)C)cnc1-c1ncc(-c2ccc(NC(=O)OCC3CCNCC3)cc2S(=O)(=O)NC(C)(C)C)s1 [Ex. 56, 4-piperidylmethyl N-[3-(tert-butylsulfamoyl)-4-[2-[5-(isopropoxycarbonylamino)-3-methoxy-2-pyridyl]thiazol-5-yl]phenyl]carbamate]	100 to 1000	
CC(C)OC(=O)N[C@H]1CC[C@@H](c2ncc(-c3ccc(NC(=O)NCc4ccccc4)cc3S(=O)(=O)NC(C)(C)C)s2)CC1 [Ex. 66B, cis-isopropyl N-[4-[5-[4-(benzylcarbamoylamino)-2-(tert-butylsulfamoyl)phenyl]thiazol-2-yl]cyclohexyl]carbamate]	100 to 1000	
CC(C)OC(=O)Nc1ccc(-c2cnc([C@H]3CC[C@@H](NC(=O)OC(C)C)CC3)s2)c(S(=O)(=O)NC(C)(C)C)c1 [Ex. 67B, cis-isopropyl N-[3-(tert-butylsulfamoyl)-4-[2-[4-(isopropoxycarbonylamino)cyclohexyl]thiazol-5-yl]phenyl]carbamate]	> 1000	
CC(C)OC(=O)NC1CCN(c2ncc(-c3ccc(NC(=O)NCc4ccccc4)cc3S(=O)(=O)NC(C)(C)C)s2)CC1 [Ex. 68, isopropyl N-[1-[5-[4-(benzylcarbamoylamino)-2-(tert-butylsulfamoyl)phenyl]thiazol-2-yl]-4-piperidyl]carbamate]	100 to 1000	
CC(C)OC(=O)Nc1ccc(-c2cnc(N3CCC(NC(=O)OC(C)C)CC3)s2)c(S(=O)(=O)NC(C)(C)C)c1 [Ex. 69, isopropyl N-[1-[5-[2-(tert-butylsulfamoyl)-4-(isopropoxycarbonylamino)phenyl]thiazol-2-yl]-4-piperidyl]carbamate]	> 1000	
